Data set [1] is described as follows: Blood-plasma concentration ratio in rat blood. It is filed as in vitro ADME. To be noted: freshly obtained heparinized whole blood. The method, then: (§1) a) Blood-plasma Concentration Ratio—Test Principle and Experimental Description:
(§2) The SO2—NH2 group of the substances according to the invention can lead to a concentration in erythrocytes as a result of binding to carboanhydrases.
(§3) Freshly obtained, heparinized blood from a rat is treated with a defined amount of active compound. The active compound concentration in the plasma obtained therefrom is measured against a calibration curve of spiked (with a known active compound concentration) plasma. The blood-plasma ratio is calculated from the measured concentration and the theoretical concentration.
(§4) In contrast to the results published in WO 01/91797, the concentration ratios of the compounds according to the invention between erythrocytes and plasma are not in a range from 10-1000:1, but in the range <10:1.

Data set [2] in a line: Blood/plasma ratio in human erythrocytes. It is filed as in vitro ADME. To be noted: human erythrocytes (blood). Here is the method: as §1, §2, §3, §4
Another data set concerns the target human carboanhydrase I (Homo sapiens, UniProt P00915). Nature of the data set: Carboanhydrase inhibition, photometric, nitrophenyl acetate conversion (CA I). It counts as biochemical. To be noted: read-out: CAI IC50. The text has this: (§5) b) Carboanhydrase Inhibition—Test Principle and Experimental Description:
(§6) Photometric determination of the inhibition of human carboanhydrase I or II by sulphonamides or sulphamates on microtitre plates with the aid of the enzymatic conversion of nitrophenyl acetate with a colour change from colourless to yellow.

Another data set has as its target human carboanhydrase II (Homo sapiens, UniProt P00918). Nature of the data set: Carboanhydrase inhibition, photometric, nitrophenyl acetate conversion (CA II). To be noted: read-out: CAII IC50. It is filed as biochemical.
Excerpt: as §5, §6

The structures appear in SMILES notation.

human carboanhydrase I, sequence (P00915 whole entry): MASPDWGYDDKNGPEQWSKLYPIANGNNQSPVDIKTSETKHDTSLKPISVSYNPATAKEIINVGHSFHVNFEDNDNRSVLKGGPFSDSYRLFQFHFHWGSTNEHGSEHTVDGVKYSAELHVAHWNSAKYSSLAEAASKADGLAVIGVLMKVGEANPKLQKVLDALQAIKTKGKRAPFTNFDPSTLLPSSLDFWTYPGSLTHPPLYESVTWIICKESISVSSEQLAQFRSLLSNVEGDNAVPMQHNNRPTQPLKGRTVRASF

As for `C=C[C@]12CC[C@]3(C)[C@@H](F)[C@H](OC(=O)c4cccc(S(N)(=O)=O)c4)C[C@H]3[C@@H]1CCc1cc(O)ccc12` [17β-Fluoro-3-hydroxy-9α-vinyloestra-1,3,5(10)-trien-16α-yl 3′-sulphamoylbenzoate], the blood plasma ratio in data set [1] was ~3.7; in data set [2], 1.2. The IC50 at human carboanhydrase I stood at 3.7 µM; on human carboanhydrase II it was 0.72 µM.
As to `C=C[C@]12CC[C@]3(C)C[C@H](OC(=O)c4cccc(S(N)(=O)=O)c4)C[C@H]3[C@@H]1CCc1cc(O)ccc12` [3-Hydroxy-9α-vinyloestra-1,3,5(10)-trien-16α-yl 3′-sulphamoylbenzoate], the IC50 at human carboanhydrase I was found to be 3.4 µM; on human carboanhydrase II, 0.49 µM.
In the same order, the values of `C=C[C@]12CC[C@]3(C)[C@@H](F)[C@H](OC(=O)c4ccccc4)C[C@H]3[C@@H]1CCc1cc(O)ccc12` [17β-Fluoro-3-hydroxy-9α-vinyloestra-1,3,5(10)-trien-16α-yl benzoate, reference compound] are > 10 µM and > 10 µM.
For `C[C@]12CC[C@@H]3c4ccc(OS(N)(=O)=O)cc4CC[C@H]3[C@@H]1CC[C@@H]2O` [Oestradiol 3-sulphamate, reference compound], the concentration for half-maximal inhibition (IC50) at human carboanhydrase I amounted to 0.157 ± 0.0106 µM.

By IC50 is commonly meant the concentration that inhibits the measured activity by half.

(Values after US20070123500A1, “Prodrugs of ERbeta-selective substances, processes for their preparation and pharmaceutical compositions comprising these compounds” (priority 2005, published 2007).)
